Measurements: patent US10065990B2, “Cyclic peptide compound, and preparation method, pharmaceutical composition and use thereof” (HANGZHOU GUANYU BIO-MEDICAL CO., LTD, priority 2013, dated 2018)
Where two headings read alike, the source gives them in different places.

Tests used:
Experiment in all cases: MTT cancer cell growth inhibition
Type in all cases: cell-based
[1] = tested on: BGC-823 (human gastric cancer cells); details: Homo sapiens, BGC-823, 72 h, MTT
Procedure, shortened: (§1)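 Seed 1500 cells/well, incubate overnight. Add compound, 10^−5 to 10^−10 M final, n=3; culture 72 h, 37° C., 5% CO2. Add MTT, 4 h. Discard supernatant, dissolve in DMSO. Read 570 nm; calculate viability and GI50.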

[2] = tested on: Bel-7402 (human hepatoma cells); details: Homo sapiens, Bel-7402, 72 h, MTT, 72 hours incubation, Bel-7402 cells; read-out: GI50 Bel-7402
Procedure, shortened: as §1

[3] = tested on: DU145 (human prostate cancer cells); details: Homo sapiens, DU-145, 72 h, MTT
Procedure, shortened: as §1

[4] = tested on: HCC827 (human non-small cell lung cancer cells); details: Homo sapiens, HCC827, 72 h, MTT, 72 hours incubation, HCC827 cells; read-out: GI50 HCC827
Procedure, shortened: as §1

[5] = tested on: HT1080 (human fibrosarcoma cells); details: Homo sapiens, HT-1080, 72 h, MTT
Procedure, shortened: as §1

[6] = tested on: Hela (human cervical cancer cells); details: Homo sapiens, HeLa, 72 h, MTT
Procedure, shortened: as §1

[7] = tested on: Huh-7 (human hepatoma cells); details: Homo sapiens, Huh-7, 72 h, MTT, 72 hours incubation, Huh-7 cells; read-out: GI50 Huh-7
Procedure, shortened: as §1

[8] = tested on: K562 (human leukemia cells); details: Homo sapiens, K562, 72 h, MTT, 72 hours incubation, K562 cells; read-out: GI50 K562
Procedure, shortened: as §1

[9] = tested on: KBM-5 (human chronic myelogenous leukemia); details: Homo sapiens, KBM5, 72 h, MTT, 72 hours incubation, KBM-5 cells; read-out: GI50 KBM-5
Procedure, shortened: as §1

[10] = tested on: MDA-MB-231 (breast cancer cells); details: Homo sapiens, MDA-MB-231, 72 h, read-out: GI50 MDA-MB-231, MTT, 72 hours incubation, MDA-MB-231 cells
Procedure, shortened: as §1

[11] = tested on: N-87 (human gastric cancer cells); details: Homo sapiens, 72 h, MTT, 72 hours incubation, N-87 cells; read-out: GI50 N-87
Procedure, shortened: as §1

[12] = tested on: PANC-1 (Pac-1, human pancreatic cancer cells); details: Homo sapiens, PANC-1, 72 h, MTT
Procedure, shortened: as §1

[13] = tested on: SGC-7901 (human gastric cancer cells); details: Homo sapiens, SGC-7901, 72 h, MTT, 72 hours incubation, SGC-7901 cells; read-out: GI50 SGC-7901
Procedure, shortened: as §1

[14] = tested on: U937 (human leukemia cells); details: Homo sapiens, U-937, 72 h, MTT
Procedure, shortened: as §1

[15] = tested on: lncap (prostate cancer cells); details: Homo sapiens, LNCaP, 72 h, MTT
Procedure, shortened: as §1

[16] = BGC-823 cells, 72 hours incubation, read-out: GI50 BG
[17] = 72 hours, present invention, read-out: GI50 BGC823, a
[18] = 72 hours, present invention, read-out: GI50 Du145, a
[19] = HT1080 cells, 72 hours incubation, read-out: GI50 HT1
[20] = 72 hours, present invention, read-out: GI50 HT1080, a
[21] = Hela cells, 72 hours incubation, read-out: GI50 Hela
[22] = 72 hours, present invention, read-out: GI50 Hela, a
[23] = 72 hours, present invention, read-out: GI50 PANC-1, a
[24] = PANC-1 cells, 72 hours incubation, read-out: GI50 PAN
[25] = 72 hours, present invention, read-out: GI50 U937, a
[26] = U937 cells, 72 hours incubation, read-out: GI50 U93
[27] = 72 hours, present invention, read-out: GI50 lncap, a
[28] = lncap cells, 72 hours incubation, read-out: GI50 lnca
[29] = DU145 cells, 72 hours incubation, read-out: GI50 Du1
[30] = 72 hours incubation, read-out: GI50 BG
[31] = 72 hours incubation, read-out: GI50 Du1
[32] = 72 hours incubation, read-out: GI50 HT1
[33] = 72 hours incubation, read-out: GI50 Hela
[34] = 72 hours incubation, read-out: GI50 PAN
[35] = 72 hours incubation, read-out: GI50 U93
[36] = 72 hours incubation, read-out: GI50 lnca

Row | SMILES | GI50 [1, 16] [µM] | GI50 [1, 17] [µM] | GI50 [2] [µM] | GI50 [3, 18] [µM] | GI50 [4] [µM] | GI50 [5, 19] [µM] | GI50 [5, 20] [µM] | GI50 [6, 21] [µM] | GI50 [6, 22] [µM] | GI50 [7] [µM] | GI50 [8] [µM] | GI50 [9] [µM] | GI50 [10] [µM] | GI50 [11] [µM] | GI50 [12, 23] [µM] | GI50 [12, 24] [µM] | GI50 [13] [µM] | GI50 [14, 26] [µM] | GI50 [15, 28] [µM] | GI50 [3, 29] [µM] | other results
1 | C/C=C1\NC(=O)c2cccc(n2)CNC(=O)C[C@@H](/C=C/CCSC(=O)CCCCCCC)OC(=O)[C@H](CCSC)NC1=O [Compound 240] | 0.19 | 0.11 | 0.079 | 0.004 | 0.066 | 0.01 | 0.033 | 0.07 | 0.018 | 0.061 | 0.047 | 0.071 | 0.037 | 0.096 | 0.19 | 0.11 | 0.024 | 0.03 | 0.01 | – | GI50 [14, 25]: 0.012 µM; GI50 [15, 27]: 0.07 µM
2 | C/C=C1\NC(=O)c2cccc(n2)CNC(=O)C[C@@H](/C=C/CCSC(=O)CCCCCCC)OC(=O)[C@H](CSCC)NC1=O [Compound 242] | 0.01 | 0.014 | 0.088 | 0.091 | 0.079 | 0.03 | 0.33 | 0.08 | 0.088 | 0.059 | 0.055 | 0.056 | 0.016 | 0.031 | 0.95 | 0.95 | 0.032 | 0.01 | 0.17 | 0.09 | GI50 [14, 25]: 0.012 µM; GI50 [15, 27]: 0.17 µM
3 | C/C=C1\NC(=O)c2nc(ccc2F)CCNC(=O)C[C@@H](/C=C/CCSC(C)=O)OC(=O)[C@H](C(C)C)NC1=O [Compound 103] | – | – | 0.025 | – | 0.055 | – | – | – | – | 0.047 | 0.034 | 0.031 | 0.039 | 0.051 | – | – | 0.037 | – | – | – | GI50 [1, 30]: 0.02 µM; GI50 [3, 31]: 0.03 µM; GI50 [5, 32]: 0.08 µM; GI50 [6, 33]: 0.04 µM; GI50 [12, 34]: 0.08 µM; GI50 [14, 35]: 0.05 µM; GI50 [15, 36]: 0.02 µM
4 | C/C=C1\NC(=O)c2nc(ccc2F)CNC(=O)C[C@@H](/C=C/CCSC(=O)CCCCCCC)OC(=O)[C@H](C)NC1=O [Example 60] | – | – | 0.057 | – | 0.057 | – | – | – | – | 0.019 | 0.027 | 0.074 | 0.019 | 0.063 | – | – | 0.043 | – | – | – | GI50 [1, 30]: 0.06 µM; GI50 [3, 31]: 0.02 µM; GI50 [5, 32]: 0.05 µM; GI50 [6, 33]: 0.07 µM; GI50 [12, 34]: 0.05 µM; GI50 [14, 35]: 0.04 µM; GI50 [15, 36]: 0.01 µM
5 | C/C=C1\NC(=O)c2nc(ccc2SC)CNC(=O)C[C@@H](/C=C/CCSC(=O)CCCCCCC)OC(=O)[C@H](CC)NC1=O [Compound 171] | 0.07 | – | 0.038 | – | 0.023 | 0.04 | – | 0.05 | – | 0.053 | 0.046 | 0.033 | 0.065 | 0.039 | – | 0.01 | 0.028 | 0.02 | 0.05 | 0.01 | –
6 | C/C=C1\NC(=O)c2nc(ccc2SCCC)CNC(=O)C[C@@H](/C=C/CCSC(=O)CCCCCCC)OC(=O)[C@H](CC)NC1=O [Compound 174] | 0.03 | – | 0.041 | – | 0.046 | 0.01 | – | 0.02 | – | 0.011 | 0.013 | 0.015 | 0.016 | 0.031 | – | 0.1 | 0.026 | 0.07 | 0.03 | 0.05 | –
